Source: ChEMBL document CHEMBL3758163, “Extended structure-activity study of thienopyrimidine-based EGFR inhibitors with evaluation of drug-like properties” (Eur J Med Chem, 2016)

Tests used:
[1] = target: T1, Ephrin type-A receptor 1 (Homo sapiens) (UniProt P21709); test: Inhibition of EPHA1 (unknown origin) at 500 nM
T1 sequence (whole entry): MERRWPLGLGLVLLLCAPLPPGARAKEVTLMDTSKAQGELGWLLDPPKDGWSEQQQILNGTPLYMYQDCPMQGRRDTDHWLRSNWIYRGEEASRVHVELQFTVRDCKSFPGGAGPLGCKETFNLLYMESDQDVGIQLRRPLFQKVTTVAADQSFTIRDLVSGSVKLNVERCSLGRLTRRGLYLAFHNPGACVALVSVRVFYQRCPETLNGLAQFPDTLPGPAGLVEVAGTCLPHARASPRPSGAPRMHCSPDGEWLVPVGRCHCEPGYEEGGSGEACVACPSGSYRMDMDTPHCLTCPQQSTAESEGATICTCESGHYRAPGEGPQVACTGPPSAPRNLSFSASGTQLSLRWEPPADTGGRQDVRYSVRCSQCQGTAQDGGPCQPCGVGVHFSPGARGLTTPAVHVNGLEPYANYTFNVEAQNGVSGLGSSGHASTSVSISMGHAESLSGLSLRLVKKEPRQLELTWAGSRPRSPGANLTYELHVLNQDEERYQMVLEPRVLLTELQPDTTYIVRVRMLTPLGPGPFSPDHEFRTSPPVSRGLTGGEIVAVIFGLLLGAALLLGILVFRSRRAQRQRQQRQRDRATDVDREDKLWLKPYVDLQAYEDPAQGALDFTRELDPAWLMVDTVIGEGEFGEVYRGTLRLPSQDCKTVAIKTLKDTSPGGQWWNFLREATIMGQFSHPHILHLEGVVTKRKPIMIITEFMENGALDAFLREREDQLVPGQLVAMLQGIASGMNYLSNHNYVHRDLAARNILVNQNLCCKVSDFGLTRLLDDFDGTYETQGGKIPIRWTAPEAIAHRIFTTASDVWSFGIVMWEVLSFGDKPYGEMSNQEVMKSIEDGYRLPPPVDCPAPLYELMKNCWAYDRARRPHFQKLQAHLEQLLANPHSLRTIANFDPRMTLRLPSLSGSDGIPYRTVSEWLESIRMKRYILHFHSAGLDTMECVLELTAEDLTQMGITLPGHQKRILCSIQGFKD

[2] = target: Proto-oncogene tyrosine-protein kinase receptor Ret (Homo sapiens) (UniProt P07949); test: Inhibition of RET (unknown origin) at 500 nM
[3] = target: Receptor tyrosine-protein kinase erbB-2 (Homo sapiens) (UniProt P04626); test: Inhibition of ERBB2 (unknown origin) at 500 nM
[4] = Half-life in human liver microsomes at 3 uM by LC-MS/MS analysis; format: ADME
[5] = target: Vascular endothelial growth factor receptor 3 (Homo sapiens) (UniProt P35916); test: Inhibition of FLT4 (unknown origin) at 500 nM
[6] = target: T2, Testis-specific serine/threonine-protein kinase 2 (Homo sapiens) (UniProt Q96PF2); test: Inhibition of STK22B (unknown origin) at 500 nM
T2 sequence (whole entry): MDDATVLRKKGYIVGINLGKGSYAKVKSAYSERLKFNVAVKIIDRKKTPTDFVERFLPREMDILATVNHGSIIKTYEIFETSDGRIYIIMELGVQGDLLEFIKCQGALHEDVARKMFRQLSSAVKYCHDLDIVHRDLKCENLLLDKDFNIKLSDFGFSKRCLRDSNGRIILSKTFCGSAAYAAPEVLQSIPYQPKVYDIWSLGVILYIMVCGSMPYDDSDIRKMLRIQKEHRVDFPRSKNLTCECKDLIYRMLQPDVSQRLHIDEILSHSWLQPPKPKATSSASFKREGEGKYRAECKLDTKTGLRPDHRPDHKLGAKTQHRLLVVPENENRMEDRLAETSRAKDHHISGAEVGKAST

[7] = target: Tyrosine-protein kinase JAK2 (Homo sapiens) (UniProt O60674); test: Inhibition of JAK2 (unknown origin) at 500 nM
Tyrosine-protein kinase JAK2 (Homo sapiens), sequence (O60674 whole entry): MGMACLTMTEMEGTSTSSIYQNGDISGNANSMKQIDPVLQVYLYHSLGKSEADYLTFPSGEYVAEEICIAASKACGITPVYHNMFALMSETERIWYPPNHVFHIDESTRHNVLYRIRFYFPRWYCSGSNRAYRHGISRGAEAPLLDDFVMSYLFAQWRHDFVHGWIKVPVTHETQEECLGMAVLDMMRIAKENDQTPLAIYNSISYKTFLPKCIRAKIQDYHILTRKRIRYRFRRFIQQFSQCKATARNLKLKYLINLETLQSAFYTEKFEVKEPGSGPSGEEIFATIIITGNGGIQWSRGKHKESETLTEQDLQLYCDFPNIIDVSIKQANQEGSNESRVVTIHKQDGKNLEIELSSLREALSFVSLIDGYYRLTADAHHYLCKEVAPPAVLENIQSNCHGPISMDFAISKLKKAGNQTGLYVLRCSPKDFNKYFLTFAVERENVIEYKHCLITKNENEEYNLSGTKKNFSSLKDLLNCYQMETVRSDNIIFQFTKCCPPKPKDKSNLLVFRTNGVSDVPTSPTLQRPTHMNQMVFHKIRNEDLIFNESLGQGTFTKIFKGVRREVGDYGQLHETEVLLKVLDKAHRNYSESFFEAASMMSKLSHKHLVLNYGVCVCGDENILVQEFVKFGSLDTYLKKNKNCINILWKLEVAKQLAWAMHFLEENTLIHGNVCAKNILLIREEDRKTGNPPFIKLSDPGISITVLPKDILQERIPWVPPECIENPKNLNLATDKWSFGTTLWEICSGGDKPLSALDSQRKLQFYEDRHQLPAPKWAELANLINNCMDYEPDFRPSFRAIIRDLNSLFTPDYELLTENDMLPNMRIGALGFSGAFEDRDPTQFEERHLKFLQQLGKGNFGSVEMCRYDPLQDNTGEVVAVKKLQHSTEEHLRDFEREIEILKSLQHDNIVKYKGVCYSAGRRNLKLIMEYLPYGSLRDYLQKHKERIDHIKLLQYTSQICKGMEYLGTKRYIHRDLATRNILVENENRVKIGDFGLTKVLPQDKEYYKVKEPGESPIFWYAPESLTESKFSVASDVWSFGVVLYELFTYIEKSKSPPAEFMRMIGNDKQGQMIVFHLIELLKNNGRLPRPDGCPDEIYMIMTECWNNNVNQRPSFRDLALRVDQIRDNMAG

[8] = target: Aurora kinase B (Homo sapiens) (UniProt Q96GD4); test: Inhibition of AURKB (unknown origin) at 500 nM
[9] = target: Serine/threonine-protein kinase PLK1 (Homo sapiens) (UniProt P53350); test: Inhibition of PLK1 (unknown origin) at 500 nM
Serine/threonine-protein kinase PLK1 (Homo sapiens), sequence (P53350 whole entry): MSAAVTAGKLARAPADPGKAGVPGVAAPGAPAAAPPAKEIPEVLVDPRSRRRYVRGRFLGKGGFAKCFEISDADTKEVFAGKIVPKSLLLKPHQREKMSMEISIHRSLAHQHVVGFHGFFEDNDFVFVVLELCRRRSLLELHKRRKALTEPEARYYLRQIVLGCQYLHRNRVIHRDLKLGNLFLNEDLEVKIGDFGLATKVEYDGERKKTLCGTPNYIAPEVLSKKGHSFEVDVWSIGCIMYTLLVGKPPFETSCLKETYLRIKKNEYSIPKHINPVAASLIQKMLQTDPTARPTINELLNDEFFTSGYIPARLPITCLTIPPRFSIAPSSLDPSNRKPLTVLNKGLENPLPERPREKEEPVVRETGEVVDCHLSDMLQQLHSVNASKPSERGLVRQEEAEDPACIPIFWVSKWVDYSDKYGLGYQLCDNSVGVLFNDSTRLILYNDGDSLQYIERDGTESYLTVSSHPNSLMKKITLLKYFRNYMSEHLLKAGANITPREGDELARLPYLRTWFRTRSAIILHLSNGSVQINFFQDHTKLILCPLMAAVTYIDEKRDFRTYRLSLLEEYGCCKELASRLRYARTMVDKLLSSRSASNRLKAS

[10] = target: Tyrosine-protein kinase ABL1 (Homo sapiens) (UniProt P00519); test: Inhibition of ABL1 (unknown origin) at 500 nM
[11] = target: Vascular endothelial growth factor receptor 2 (Homo sapiens) (UniProt P35968); test: Inhibition of KDR (unknown origin) at 500 nM
[12] = target: Tyrosine-protein kinase HCK (Homo sapiens) (UniProt P08631); test: Inhibition of HCK (unknown origin) at 500 nM
[13] = target: Mitogen-activated protein kinase 8 (Homo sapiens) (UniProt P45983); test: Inhibition of MAPK8 (unknown origin) at 500 nM
Mitogen-activated protein kinase 8 (Homo sapiens), sequence (P45983 whole entry): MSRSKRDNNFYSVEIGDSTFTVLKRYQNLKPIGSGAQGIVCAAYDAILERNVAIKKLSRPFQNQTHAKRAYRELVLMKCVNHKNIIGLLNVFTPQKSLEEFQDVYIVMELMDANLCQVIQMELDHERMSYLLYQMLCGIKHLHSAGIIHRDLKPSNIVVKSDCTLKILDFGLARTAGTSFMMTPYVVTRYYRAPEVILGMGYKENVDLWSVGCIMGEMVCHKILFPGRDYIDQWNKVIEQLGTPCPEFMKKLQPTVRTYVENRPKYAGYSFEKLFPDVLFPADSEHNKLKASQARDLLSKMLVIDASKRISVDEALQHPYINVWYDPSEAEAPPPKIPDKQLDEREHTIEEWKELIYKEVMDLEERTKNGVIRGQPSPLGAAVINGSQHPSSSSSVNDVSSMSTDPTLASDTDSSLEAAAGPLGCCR

[14] = target: Mitogen-activated protein kinase 1 (Homo sapiens) (UniProt P28482); test: Inhibition of MAPK1 (unknown origin) at 500 nM
Mitogen-activated protein kinase 1 (Homo sapiens), sequence (P28482 whole entry): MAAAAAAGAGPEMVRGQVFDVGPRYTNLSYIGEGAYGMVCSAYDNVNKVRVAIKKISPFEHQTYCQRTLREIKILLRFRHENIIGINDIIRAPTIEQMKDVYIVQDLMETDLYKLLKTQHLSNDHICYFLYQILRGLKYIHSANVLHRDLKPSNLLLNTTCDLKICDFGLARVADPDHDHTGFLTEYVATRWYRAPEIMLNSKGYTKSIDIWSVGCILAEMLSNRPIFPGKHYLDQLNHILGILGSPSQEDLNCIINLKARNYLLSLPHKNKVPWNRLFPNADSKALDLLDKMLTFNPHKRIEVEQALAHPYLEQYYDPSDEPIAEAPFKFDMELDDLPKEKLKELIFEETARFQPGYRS

[15] = target: Protein kinase C theta type (Homo sapiens) (UniProt Q04759); test: Inhibition of PRKCQ (unknown origin) at 500 nM
Protein kinase C theta type (Homo sapiens), sequence (Q04759 whole entry, looked up): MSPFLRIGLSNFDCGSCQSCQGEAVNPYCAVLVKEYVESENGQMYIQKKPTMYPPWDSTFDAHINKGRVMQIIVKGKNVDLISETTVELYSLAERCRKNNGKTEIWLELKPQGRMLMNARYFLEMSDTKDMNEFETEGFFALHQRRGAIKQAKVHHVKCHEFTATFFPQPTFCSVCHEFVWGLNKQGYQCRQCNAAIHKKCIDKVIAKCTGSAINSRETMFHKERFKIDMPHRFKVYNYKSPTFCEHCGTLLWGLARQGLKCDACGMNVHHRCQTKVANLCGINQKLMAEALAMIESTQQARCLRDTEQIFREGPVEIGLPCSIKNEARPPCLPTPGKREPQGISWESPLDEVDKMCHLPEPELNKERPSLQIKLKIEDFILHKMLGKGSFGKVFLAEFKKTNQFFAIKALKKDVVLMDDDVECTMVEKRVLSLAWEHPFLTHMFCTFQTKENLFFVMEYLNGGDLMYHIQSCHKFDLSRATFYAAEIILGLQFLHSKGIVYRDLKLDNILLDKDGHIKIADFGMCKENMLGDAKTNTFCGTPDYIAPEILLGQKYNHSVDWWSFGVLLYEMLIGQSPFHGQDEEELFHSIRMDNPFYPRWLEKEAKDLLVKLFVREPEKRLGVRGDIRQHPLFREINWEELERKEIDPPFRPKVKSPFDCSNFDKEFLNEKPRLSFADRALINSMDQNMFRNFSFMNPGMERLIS

[16] = target: Tyrosine-protein kinase CSK (Homo sapiens) (UniProt P41240); test: Inhibition of CSK (unknown origin) at 500 nM
Tyrosine-protein kinase CSK (Homo sapiens), sequence (P41240 2-450 limits assumed): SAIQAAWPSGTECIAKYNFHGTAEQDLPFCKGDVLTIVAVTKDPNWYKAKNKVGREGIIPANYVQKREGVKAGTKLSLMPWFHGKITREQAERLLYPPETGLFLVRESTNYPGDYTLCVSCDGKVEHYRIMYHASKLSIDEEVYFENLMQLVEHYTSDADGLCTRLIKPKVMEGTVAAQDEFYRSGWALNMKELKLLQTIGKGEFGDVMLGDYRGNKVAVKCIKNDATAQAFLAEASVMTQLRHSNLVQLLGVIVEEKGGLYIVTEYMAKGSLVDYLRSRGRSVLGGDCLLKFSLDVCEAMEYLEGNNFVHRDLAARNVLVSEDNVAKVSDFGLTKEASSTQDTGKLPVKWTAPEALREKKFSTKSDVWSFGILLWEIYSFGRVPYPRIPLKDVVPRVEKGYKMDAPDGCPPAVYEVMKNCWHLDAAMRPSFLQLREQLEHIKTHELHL

[17] = target: Macrophage colony-stimulating factor 1 receptor (Homo sapiens) (UniProt P07333); test: Inhibition of CSF1R (unknown origin) at 500 nM
[18] = target: Tyrosine-protein kinase Fer (Homo sapiens) (UniProt P16591); test: Inhibition of FER (unknown origin) at 500 nM
[19] = target: Focal adhesion kinase 1 (Homo sapiens) (UniProt Q05397); test: Inhibition of PTK2 (unknown origin) at 500 nM
[20] = target: Angiopoietin-1 receptor (Homo sapiens) (UniProt Q02763); test: Inhibition of TEK (unknown origin) at 500 nM
Angiopoietin-1 receptor (Homo sapiens), sequence (Q02763 whole entry): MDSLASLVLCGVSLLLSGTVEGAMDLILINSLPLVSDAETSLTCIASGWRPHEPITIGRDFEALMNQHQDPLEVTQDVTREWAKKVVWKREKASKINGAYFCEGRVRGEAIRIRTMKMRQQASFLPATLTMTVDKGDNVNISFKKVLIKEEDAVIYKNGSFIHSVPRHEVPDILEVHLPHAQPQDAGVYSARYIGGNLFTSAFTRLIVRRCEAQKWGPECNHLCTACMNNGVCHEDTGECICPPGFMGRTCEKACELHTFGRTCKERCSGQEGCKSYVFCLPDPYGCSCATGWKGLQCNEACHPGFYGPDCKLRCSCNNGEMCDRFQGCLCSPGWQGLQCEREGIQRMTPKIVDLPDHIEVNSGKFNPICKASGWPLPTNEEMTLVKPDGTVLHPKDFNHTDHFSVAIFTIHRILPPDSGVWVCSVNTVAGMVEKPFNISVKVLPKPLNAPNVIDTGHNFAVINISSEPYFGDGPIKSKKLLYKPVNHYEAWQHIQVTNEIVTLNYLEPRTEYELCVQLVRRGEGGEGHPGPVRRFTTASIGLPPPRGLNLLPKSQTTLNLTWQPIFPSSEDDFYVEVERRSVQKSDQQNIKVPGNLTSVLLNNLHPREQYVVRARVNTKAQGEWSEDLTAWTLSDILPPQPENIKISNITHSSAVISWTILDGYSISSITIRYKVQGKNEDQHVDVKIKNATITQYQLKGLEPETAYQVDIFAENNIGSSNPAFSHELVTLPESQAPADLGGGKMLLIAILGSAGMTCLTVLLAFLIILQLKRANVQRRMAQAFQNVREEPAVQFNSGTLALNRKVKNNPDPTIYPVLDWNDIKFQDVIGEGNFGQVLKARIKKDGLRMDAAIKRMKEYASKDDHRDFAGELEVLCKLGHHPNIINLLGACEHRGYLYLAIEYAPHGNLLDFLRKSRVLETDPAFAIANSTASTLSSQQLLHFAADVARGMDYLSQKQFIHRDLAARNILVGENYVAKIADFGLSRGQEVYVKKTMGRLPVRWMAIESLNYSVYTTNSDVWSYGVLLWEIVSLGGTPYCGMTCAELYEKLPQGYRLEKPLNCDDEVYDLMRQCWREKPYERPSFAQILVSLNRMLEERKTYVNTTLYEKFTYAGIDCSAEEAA

[21] = target: Tyrosine-protein kinase Lyn (Homo sapiens) (UniProt P07948); test: Inhibition of LYN B (unknown origin) at 500 nM
[22] = target: Fibroblast growth factor receptor 1 (Homo sapiens) (UniProt P11362); test: Inhibition of FGFR1 (unknown origin) at 500 nM

- inhibition [1]: 15%
- inhibition [2]: 20%
- inhibition [3]: 54%
- half-life at 3 µM [4]: 66 min
- inhibition [5]: 4%
- inhibition [6]: 1%
- inhibition [7]: -3%
- inhibition [8]: 23%
- inhibition [9]: 6%
- inhibition [10]: 27%
- inhibition [11]: 10%
- inhibition [12]: 15%
- inhibition [13]: 8%
- inhibition [14]: -2%
- inhibition [15]: 12%
- inhibition [16]: 13%
- inhibition [17]: 0%
- inhibition [18]: -4%
- inhibition [19]: 7%
- inhibition [20]: 9%
- inhibition [21]: 37%
- inhibition [22]: -5%
SMILES: CN(C)CCNC(=O)c1ccc(-c2cc3c(N[C@H](CO)c4ccccc4)ncnc3s2)cc1
